Assay results reported in patent US11105794B2, “In vitro nephrotoxicity screening assay” (Hoffmann-La Roche Inc., priority 2016, dated 2021).

System: PTEC-TERT1 cells
Assay: EGF assay, supernatant of PTEC-TERT1 cells
Details: for Toxicity grade: from EGF, assay window saline vs toxic reference compound 4-1
[1] = PTEC-TERT1, 6 days, 10 μM oligonucleotide (Table 7)
[2] = PTEC-TERT1, 6 days, 30 μM oligonucleotide (Table 7)
[3] = PTEC-TERT1, Day 6, 10 μM (Table 4)
[4] = PTEC-TERT1, Day 6, 30 μM (Table 4)
[5] = PTEC-TERT1, Day 6, 100 μM (Table 4)

Experimental: Prior to treatment with oligonucleotides the PTEC-TERT1 were seeded into collagen I-coated 96-well plates (Corning, 356407) at a density of 40 000 and 20 000 cells/well respectively in PTEC medium and grown until confluence.
Oligonucleotides were dissolved in PBS and added to the cell culture at the given concentration, such as 10, 30 or 100 μM. The total volume of each well was 100 μl. PBS served as vehicle control.
When extra cellular markers, like EGF and KIM-1, were analyzed following the oligonucleotide treatment the medium was collected and stored at −20° C. until further analysis. […] The collected medium was stored at −20° C.
For analysis of human EGF, cell supernatants were thawed on ice, diluted 1:2 and 1:10 in sample dilution buffer (BioRad catalog # M60-009RDPD) and analyzed by Luminex®-based ELISA using human EGF beads (Bio-Plex Pro™ Human Cancer Biomarker Panel 2 EGF Set#171BC603M), or followed by analysis using the Bio-Plex® 200 Systems (BioRad) according to the manufacturer's instructions. Data are reported as mean concentrations and standard deviations of triplicate wells.

ACTgcrtttcrcacrtCTG (antisense ACTGCTTTCCACTCTG; LNA gapmer, stereodefined phosphorothioates, chemistry not fully specified) [Compound 8-3]
EGF [1]: 869 % saline | Toxicity grade (PTEC-TERT1, 6 days, 10 μM): 32 | EGF [2]: 3416 % saline | Toxicity grade (PTEC-TERT1, 6 days, 30 μM): 46

CACattsccttsgctsCTsG (antisense CACATTCCTTGCTCTG; LNA gapmer, stereodefined phosphorothioates, chemistry not fully specified) [Compound 10-2]
EGF [1]: 93 % saline | Toxicity grade (PTEC-TERT1, 6 days, 10 μM): 3 | EGF [2]: 156 % saline | Toxicity grade (PTEC-TERT1, 6 days, 30 μM): 1

CAAatgctgaaacTAT (CAAATGCTGAAACTAT; chemistry not given here) [Compound 7-1]
EGF [3]: 37 % saline | EGF [4]: 40 % saline | EGF [5]: 67 % saline

GCCtcccagttccTTT (GCCTCCCAGTTCCTTT; chemistry not given here) [Compound 9-1]
EGF [3]: 220 % saline | EGF [4]: 284 % saline | EGF [5]: 1593 % saline

CACattrccttrgctrCTrG (antisense CACATTCCTTGCTCTG; LNA gapmer, stereodefined phosphorothioates, chemistry not fully specified) [Compound 10-3]
EGF [1]: 248 % saline | Toxicity grade (PTEC-TERT1, 6 days, 10 μM): 9 | EGF [2]: 1740 % saline | Toxicity grade (PTEC-TERT1, 6 days, 30 μM): 23

ATTgcattgtttcCGT (ATTGCATTGTTTCCGT; chemistry not given here) [Compound 18-1]
EGF [3]: 223 % saline | EGF [4]: 203 % saline | EGF [5]: 290 % saline

CTAtgtgttccTGT (CTATGTGTTCCTGT; chemistry not given here) [Compound 15-1]
EGF [3]: 38 % saline | EGF [4]: 76 % saline | EGF [5]: 234 % saline

TTTacacttgaCCC (TTTACACTTGACCC; chemistry not given here) [Compound 13-1]
EGF [3]: 27 % saline | EGF [4]: 29 % saline | EGF [5]: 39 % saline

CGTttgtgctcgaTAA (CGTTTGTGCTCGATAA; chemistry not given here) [Compound 16-1]
EGF [3]: 394 % saline | EGF [4]: 509 % saline | EGF [5]: 707 % saline

CACattscscttsgsctCTG (antisense CACATTCCTTGCTCTG; LNA gapmer, stereodefined phosphorothioates, chemistry not fully specified) [Compound 10-4]
EGF [1]: 60 % saline | Toxicity grade (PTEC-TERT1, 6 days, 10 μM): 1 | EGF [2]: 157 % saline | Toxicity grade (PTEC-TERT1, 6 days, 30 μM): 1

CATtgcattgtttCCG (CATTGCATTGTTTCCG; chemistry not given here) [Compound 19-1]
EGF [3]: 317 % saline | EGF [4]: 310 % saline | EGF [5]: 413 % saline

CATtgcattgttTCCG (CATTGCATTGTTTCCG; chemistry not given here) [Compound 19-2]
EGF [3]: 370 % saline | EGF [4]: 606 % saline | EGF [5]: 770 % saline

ACTgcstttcscacstCTG (antisense ACTGCTTTCCACTCTG; LNA gapmer, stereodefined phosphorothioates, chemistry not fully specified) [Compound 8-2]
EGF [1]: 5723 % saline | Toxicity grade (PTEC-TERT1, 6 days, 10 μM): 219 | EGF [2]: 25199 % saline | Toxicity grade (PTEC-TERT1, 6 days, 30 μM): 347

CACattrcrcttrgrctCTG (antisense CACATTCCTTGCTCTG; LNA gapmer, stereodefined phosphorothioates, chemistry not fully specified) [Compound 10-5]
EGF [1]: 369 % saline | Toxicity grade (PTEC-TERT1, 6 days, 10 μM): 13 | EGF [2]: 1069 % saline | Toxicity grade (PTEC-TERT1, 6 days, 30 μM): 14

CGTttgtgctcgATA (CGTTTGTGCTCGATA; chemistry not given here) [Compound 17-1]
EGF [3]: 342 % saline | EGF [4]: 550 % saline | EGF [5]: 693 % saline
